Data: ChEMBL document CHEMBL1139025, “Biological studies of photoinducible phenol quaternary ammonium derivatives” (2006)
Activity calls are given as the source filed them. No cut-off for these calls is given here.

Key:
Assay type in all cases: functional
[1] = test system: THP-1; test: Apoptotic activity against illuminated human THP1 cells at 0.05 mM
[2] = test system: Nucleic Acid; test: Inhibition of DNA transcription by photoactivation at 10 uM
[3] = test system: THP-1; test: Apoptotic activity against human THP1 cells at 0.05 mM

| Structure (SMILES) | Activity [1] | Activity [2] | Activity [3] |
| --- | --- | --- | --- |
| C[N+](C)(C)Cc1cc(-c2ccc(O)c(C[N+](C)(C)C)c2)ccc1O.[I-].[I-] | 62.03% | Active | 3.01% |
| C[N+](C)(C)Cc1cc(O)c(C[N+](C)(C)C)cc1O |  | Active |  |
